Test results: patent US11780893B2, “Kv1.3 blockers” (Zealand Pharma A/S, priority 2019, dated 2023)
Bridge positions count the residues as written; N and C are the ends. Square brackets hold non-standard residues; d marks the D form. Peptide text beside a SMILES is read from it. Nle = CCCC[C@H](N)C(=O)O

target: T1, human Kv1.3 voltage-gated K+ channel (Homo sapiens, UniProt P22001); assay: cell-based; conditions: inhibition of thallium flux, CHO-DUKX cells with human Kv1.3; read-out: IC50
T1 construct: host or cells: CHO-DUKX
T1 sequence (P22001 whole entry): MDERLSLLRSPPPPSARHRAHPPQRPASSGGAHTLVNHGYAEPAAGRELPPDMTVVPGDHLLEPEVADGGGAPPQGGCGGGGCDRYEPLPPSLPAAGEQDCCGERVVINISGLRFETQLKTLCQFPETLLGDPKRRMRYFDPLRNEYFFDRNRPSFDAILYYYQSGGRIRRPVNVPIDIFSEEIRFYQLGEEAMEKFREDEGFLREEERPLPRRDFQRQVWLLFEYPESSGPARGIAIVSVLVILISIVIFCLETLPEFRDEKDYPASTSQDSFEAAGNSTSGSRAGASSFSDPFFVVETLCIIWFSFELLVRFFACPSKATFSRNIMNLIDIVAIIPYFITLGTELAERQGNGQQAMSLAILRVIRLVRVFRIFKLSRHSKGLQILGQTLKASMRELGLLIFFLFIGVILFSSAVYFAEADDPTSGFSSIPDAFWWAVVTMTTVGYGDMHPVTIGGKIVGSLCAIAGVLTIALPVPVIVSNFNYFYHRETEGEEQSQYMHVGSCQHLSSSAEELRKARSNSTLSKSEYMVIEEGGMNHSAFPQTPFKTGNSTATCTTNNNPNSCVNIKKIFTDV

| SMILES | IC50 [nM] |
| --- | --- |
| CCCC[C@H](NC(=O)[C@@H]1CCCN1)C(=O)N[C@@H](CCC(=O)O)C(=O)N[C@@H](CCCC)C(=O)N[C@@H](CCCNC(=N)N)C(=O)N[C@H]1CSSC[C@@H]2NC(=O)[C@H](CCCCN)NC(=O)CNC(=O)[C@H](Cc3ccccc3)NC(=O)[C@H]([C@@H](C)CC)NC(=O)[C@H](CO)NC(=O)CNC(=O)[C@H]([C@@H](C)CC)NC(=O)[C@H](C)NC(=O)[C@H](C)NC(=O)[C@H](CC(C)C)NC(=O)[C@@H]3CSSC[C@@H](C(=O)N[C@@H](Cc4ccc(O)cc4)C(=O)N4CCC[C@H]4C(=O)N[C@@H](CCCNC(=N)N)C(=O)N[C@@H](Cc4c[nH]cn4)C(=O)N[C@@H](CCCNC(=N)N)C(=O)O)NC(=O)[C@H](CCCCN)NC(=O)[C@H](CSSC[C@H](NC(=O)[C@H](CCC(=O)O)NC(=O)[C@H](C(C)C)NC(=O)[C@H](CO)NC(=O)[C@H](C)NC(=O)[C@H](CO)NC1=O)C(=O)N[C@@H](CCCCN)C(=O)N[C@@H](CCC(N)=O)C(=O)N[C@@H](CCCCN)C(=O)N3)NC(=O)[C@H](CCCCN)NC(=O)[C@H](CCCCN)NC(=O)[C@H](CC(N)=O)NC(=O)[C@H](CCCC)NC2=O [Compound 129] (H-P[Nle]E[Nle]RCSASVECKQKCLAAIGSIFGKC[Nle]NKKCKCYPRHR-OH; disulfide 6-27, 12-32, 16-34) | 0.143 |
| CCCC[C@H](NC(=O)[C@@H]1CCCN1)C(=O)N[C@@H](CCC(=O)O)C(=O)N[C@@H](CCCC)C(=O)N[C@@H](CCCNC(=N)N)C(=O)N[C@H]1CSSC[C@@H]2NC(=O)[C@H](CCCCN)NC(=O)CNC(=O)[C@H](Cc3ccccc3)NC(=O)[C@H]([C@@H](C)CC)NC(=O)[C@H](CO)NC(=O)CNC(=O)[C@H]([C@@H](C)CC)NC(=O)[C@H](C)NC(=O)[C@H](C)NC(=O)[C@H](CC(C)C)NC(=O)[C@@H]3CSSC[C@@H](C(=O)N[C@@H](Cc4ccc(O)cc4)C(=O)N4CCC[C@H]4C(=O)N[C@@H](CCCNC(=N)N)C(=O)N[C@@H](C)C(=O)N[C@@H](CCCCN)C(=O)O)NC(=O)[C@H](CCCCN)NC(=O)[C@H](CSSC[C@H](NC(=O)[C@H](CCC(=O)O)NC(=O)[C@H](C(C)C)NC(=O)[C@H](CO)NC(=O)[C@H](C)NC(=O)[C@H](CO)NC1=O)C(=O)N[C@@H](CCCCN)C(=O)N[C@@H](CCC(N)=O)C(=O)N[C@@H](CCCCN)C(=O)N3)NC(=O)[C@H](CCCCN)NC(=O)[C@H](CCCCN)NC(=O)[C@H](CC(N)=O)NC(=O)[C@H](CCCC)NC2=O [Compound 130] (H-P[Nle]E[Nle]RCSASVECKQKCLAAIGSIFGKC[Nle]NKKCKCYPRAK-OH; disulfide 6-27, 12-32, 16-34) | 0.529 |
| CCCC[C@H](NC(=O)[C@@H]1CCCN1)C(=O)N[C@@H](CCC(=O)O)C(=O)N[C@@H](CCCC)C(=O)N[C@@H](CCCNC(=N)N)C(=O)N[C@H]1CSSC[C@@H]2NC(=O)[C@H](CCCCN)NC(=O)CNC(=O)[C@H](Cc3ccccc3)NC(=O)[C@H]([C@@H](C)CC)NC(=O)[C@H](CO)NC(=O)CNC(=O)[C@H]([C@@H](C)CC)NC(=O)[C@H](C)NC(=O)[C@H](C)NC(=O)[C@H](CC(C)C)NC(=O)[C@@H]3CSSC[C@@H](C(=O)N[C@@H](Cc4ccc(O)cc4)C(=O)N4CCC[C@H]4C(=O)N[C@@H](CCCNC(=N)N)C(=O)N[C@@H](CO)C(=O)N[C@H](C(=O)O)[C@@H](C)O)NC(=O)[C@H](CCCCN)NC(=O)[C@H](CSSC[C@H](NC(=O)[C@H](CCC(=O)O)NC(=O)[C@H](C(C)C)NC(=O)[C@H](CO)NC(=O)[C@H](C)NC(=O)[C@H](CO)NC1=O)C(=O)N[C@@H](CCCCN)C(=O)N[C@@H](CCC(N)=O)C(=O)N[C@@H](CCCCN)C(=O)N3)NC(=O)[C@H](CCCCN)NC(=O)[C@H](CCCCN)NC(=O)[C@H](CC(N)=O)NC(=O)[C@H](CCCC)NC2=O [Compound 133] (H-P[Nle]E[Nle]RCSASVECKQKCLAAIGSIFGKC[Nle]NKKCKCYPRST-OH; disulfide 6-27, 12-32, 16-34) | 1.1 |
| CCCC[C@H](NC(=O)[C@@H]1CCCN1)C(=O)N[C@@H](CCC(=O)O)C(=O)N[C@@H](CCCC)C(=O)N[C@@H](CCCNC(=N)N)C(=O)N[C@H]1CSSC[C@@H]2NC(=O)[C@H](CCCCN)NC(=O)CNC(=O)[C@H](Cc3ccccc3)NC(=O)[C@H]([C@@H](C)CC)NC(=O)[C@H](CO)NC(=O)CNC(=O)[C@H]([C@@H](C)CC)NC(=O)[C@H](C)NC(=O)[C@H](C)NC(=O)[C@H](CC(C)C)NC(=O)[C@@H]3CSSC[C@@H](C(=O)N[C@@H](Cc4ccc(O)cc4)C(=O)N4CCC[C@H]4C(=O)N[C@@H](CCCNC(=N)N)C(=O)N[C@@H](CCCNC(=N)N)C(=O)N[C@@H](Cc4ccc(O)cc4)C(=O)O)NC(=O)[C@H](CCCCN)NC(=O)[C@H](CSSC[C@H](NC(=O)[C@H](CCC(=O)O)NC(=O)[C@H](C(C)C)NC(=O)[C@H](CO)NC(=O)[C@H](C)NC(=O)[C@H](CO)NC1=O)C(=O)N[C@@H](CCCCN)C(=O)N[C@@H](CCC(N)=O)C(=O)N[C@@H](CCCCN)C(=O)N3)NC(=O)[C@H](CCCCN)NC(=O)[C@H](CCCCN)NC(=O)[C@H](CC(N)=O)NC(=O)[C@H](CCCC)NC2=O [Compound 134] (H-P[Nle]E[Nle]RCSASVECKQKCLAAIGSIFGKC[Nle]NKKCKCYPRRY-OH; disulfide 6-27, 12-32, 16-34) | 0.21 |
| CCCC[C@H](NC(=O)[C@@H]1CCCN1)C(=O)N[C@@H](CCC(=O)O)C(=O)N[C@@H](CCCC)C(=O)N[C@@H](CCCNC(=N)N)C(=O)N[C@H]1CSSC[C@@H]2NC(=O)[C@H](CCCCN)NC(=O)CNC(=O)[C@H](Cc3ccccc3)NC(=O)[C@H]([C@@H](C)CC)NC(=O)[C@H](CO)NC(=O)CNC(=O)[C@H]([C@@H](C)CC)NC(=O)[C@H](C)NC(=O)[C@H](C)NC(=O)[C@H](CC(C)C)NC(=O)[C@@H]3CSSC[C@@H](C(=O)N[C@@H](Cc4ccc(O)cc4)C(=O)N4CCC[C@H]4C(=O)N[C@@H](CCCNC(=N)N)C(=O)O)NC(=O)[C@H](CCCCN)NC(=O)[C@H](CSSC[C@H](NC(=O)[C@H](CCC(=O)O)NC(=O)[C@H](C(C)C)NC(=O)[C@H](CO)NC(=O)[C@H](CO)NC(=O)[C@H](CO)NC1=O)C(=O)N[C@@H](CCCCN)C(=O)N[C@@H](CCC(N)=O)C(=O)N[C@@H](CCCCN)C(=O)N3)NC(=O)[C@H](CCCCN)NC(=O)[C@H](CCCCN)NC(=O)[C@H](CC(N)=O)NC(=O)[C@H](CCCC)NC2=O [Compound 135] (H-P[Nle]E[Nle]RCSSSVECKQKCLAAIGSIFGKC[Nle]NKKCKCYPR-OH; disulfide 6-27, 12-32, 16-34) | 0.336 |
| CCCC[C@H](NC(=O)[C@@H]1CCCN1)C(=O)N[C@@H](CCC(=O)O)C(=O)N[C@@H](CCCC)C(=O)N[C@@H](CCCNC(=N)N)C(=O)N[C@H]1CSSC[C@@H]2NC(=O)[C@H](CCCCN)NC(=O)CNC(=O)[C@H](Cc3ccccc3)NC(=O)[C@H]([C@@H](C)CC)NC(=O)[C@H](CO)NC(=O)CNC(=O)[C@H]([C@@H](C)CC)NC(=O)[C@H](C)NC(=O)[C@H](C)NC(=O)[C@H](CC(C)C)NC(=O)[C@@H]3CSSC[C@@H](C(=O)N[C@@H](Cc4ccc(O)cc4)C(=O)N4CCC[C@H]4C(=O)N[C@@H](CCCNC(=N)N)C(=O)O)NC(=O)[C@H](CCCCN)NC(=O)[C@H](CSSC[C@H](NC(=O)[C@H](CCC(=O)O)NC(=O)[C@H](C(C)C)NC(=O)[C@H](CO)NC(=O)[C@H](CC(C)C)NC(=O)[C@H](CO)NC1=O)C(=O)N[C@@H](CCCCN)C(=O)N[C@@H](CCC(N)=O)C(=O)N[C@@H](CCCCN)C(=O)N3)NC(=O)[C@H](CCCCN)NC(=O)[C@H](CCCCN)NC(=O)[C@H](CC(N)=O)NC(=O)[C@H](CCCC)NC2=O [Compound 136] (H-P[Nle]E[Nle]RCSLSVECKQKCLAAIGSIFGKC[Nle]NKKCKCYPR-OH; disulfide 6-27, 12-32, 16-34) | 6.24 |
| CCCC[C@H](NC(=O)[C@@H]1CCCN1)C(=O)N[C@@H](CCC(=O)O)C(=O)N[C@@H](CCCC)C(=O)N[C@@H](CCCNC(=N)N)C(=O)N[C@H]1CSSC[C@@H]2NC(=O)[C@H](CCCCN)NC(=O)CNC(=O)[C@H](Cc3ccccc3)NC(=O)[C@H]([C@@H](C)CC)NC(=O)[C@H](CO)NC(=O)CNC(=O)[C@H]([C@@H](C)CC)NC(=O)[C@H](C)NC(=O)[C@H](C)NC(=O)[C@H](CC(C)C)NC(=O)[C@@H]3CSSC[C@@H](C(=O)N[C@@H](Cc4ccc(O)cc4)C(=O)N4CCC[C@H]4C(=O)N[C@@H](CCCNC(=N)N)C(=O)O)NC(=O)[C@H](CCCCN)NC(=O)[C@H](CSSC[C@H](NC(=O)[C@H](CCC(=O)O)NC(=O)[C@H](C(C)C)NC(=O)[C@@H]4CCCN4C(=O)[C@H](C)NC(=O)[C@H](CO)NC1=O)C(=O)N[C@@H](CCCCN)C(=O)N[C@@H](CCC(N)=O)C(=O)N[C@@H](CCCCN)C(=O)N3)NC(=O)[C@H](CCCCN)NC(=O)[C@H](CCCCN)NC(=O)[C@H](CC(N)=O)NC(=O)[C@H](CCCC)NC2=O [Compound 137] (H-P[Nle]E[Nle]RCSAPVECKQKCLAAIGSIFGKC[Nle]NKKCKCYPR-OH; disulfide 6-27, 12-32, 16-34) | 0.333 |
| CCCC[C@H](NC(=O)[C@@H]1CCCN1)C(=O)N[C@@H](CCC(=O)O)C(=O)N[C@@H](CCCC)C(=O)N[C@@H](CCCNC(=N)N)C(=O)N[C@H]1CSSC[C@@H]2NC(=O)[C@H](CCCCN)NC(=O)CNC(=O)[C@H](Cc3ccccc3)NC(=O)[C@H]([C@@H](C)CC)NC(=O)[C@H](CO)NC(=O)CNC(=O)[C@H]([C@@H](C)CC)NC(=O)[C@H](C)NC(=O)[C@H](C)NC(=O)[C@H](CC(C)C)NC(=O)[C@@H]3CSSC[C@@H](C(=O)N[C@@H](Cc4ccc(O)cc4)C(=O)N4CCC[C@H]4C(=O)N[C@@H](CCCNC(=N)N)C(=O)O)NC(=O)[C@H](CCCCN)NC(=O)[C@H](CSSC[C@H](NC(=O)[C@H](CCC(=O)O)NC(=O)[C@@H]4CCCN4C(=O)[C@H](CO)NC(=O)[C@H](C)NC(=O)[C@H](CO)NC1=O)C(=O)N[C@@H](CCCCN)C(=O)N[C@@H](CCC(N)=O)C(=O)N[C@@H](CCCCN)C(=O)N3)NC(=O)[C@H](CCCCN)NC(=O)[C@H](CCCCN)NC(=O)[C@H](CC(N)=O)NC(=O)[C@H](CCCC)NC2=O [Compound 138] (H-P[Nle]E[Nle]RCSASPECKQKCLAAIGSIFGKC[Nle]NKKCKCYPR-OH; disulfide 6-27, 12-32, 16-34) | 0.228 |
